From patent US12162861B2, “Dopamine D3 receptor selective antagonists/partial agonists; method of making; and use thereof” (THE UNITED STATES OF AMERICA, AS REPRESENTED BY THE …, priority 2016, dated 2024)
Entries after “also recorded” stand apart in the source; their conditions may differ.

Legend:
[1] = target: T1, human D2R (Homo sapiens, UniProt P14416); assay: Radioligand competition binding, [3H]N-methylspiperone, D2R; details: Table 1A; HEK 293 cells transfected with hD2LR, [3H]N-methylspiperone; read-out: D2R K ± SEM
T1 construct: expressed in transfected cells; host or cells: HEK293
Method: Binding at dopamine D2-like receptors was determined using previously described methods. (Chen et al. “Tranylcypromine substituted cis-hydroxycyclobutylnaphthamides as potent and selective dopamine D(3) receptor antagonists.” J. Med. Chem. 2014, 57, 4962-4968) Membranes were prepared from HEK293 cells expressing human D2R, D3R or D4R, grown in a 50:50 mix of DMEM and Ham's F12 culture media, supplemented with 20 mM HEPES, 2 mM L-glutamine, 0.1 mM non-essential amino acids, 1× antibiotic/antimycotic, 10% heat-inactivated fetal bovine serum, and 200 μg/mL hygromycin (Life Technologies, Grand Island, NY) and kept in an incubator at 37° C. and 5% CO2. Upon reaching 80-90% confluence, cells were harvested using pre-mixed Earle's Balanced Salt Solution (EBSS) with 5 μM EDTA (Life Technologies) and centrifuged at 3000 rpm for 10 min at 21° C. The supernatant was removed and the pellet was resuspended in 10 mL hypotonic lysis buffer (5 mM MgCl2·6H2O, 5 mM Tris, pH 7.4 at 4° C.) and centrifuged at 20,000 rpm for 30 min at 4° C. The pellet was then resuspended in fresh EBSS buffer made from 8.7 g/L Earle's Balanced Salts without phenol red (US Biological, Salem, MA), 2.2 g/L sodium bicarbonate, pH to 7.4. A Bradford protein assay (Bio-Rad, Hercules, CA) was used to determine the protein concentration and membranes were diluted to 500 μg/mL and stored in a −80° C. freezer for later use.
Radioligand competition binding experiments were conducted using thawed membranes. Test compounds were freshly dissolved in 30% DMSO and 70% H2O to a stock concentration of 100 μM. To assist the solubilization of free-base compounds, 10 μl of glacial acetic acid was added along with the DMSO. Each test compound was then diluted into 13 half-log serial dilutions using 30% DMSO vehicle; final test concentrations ranged from 10 μM to 10 pM. Previously frozen membranes were diluted in fresh EBSS to a 100 μg/mL (for hD2R or hD3R) or 200 μg/mL (hD4R) stock for binding. Radioligand competition experiments were conducted in glass tubes containing 300 μl fresh EBSS buffer with 0.2 mM sodium metabisulfite, 50 μl of diluted test compound, 100 μl of membranes (10 μg total protein for hD2R or hD3R, 20 μg total protein for hD4R), and 50 μl of [^3H]N-methylspiperone (0.4 nM final concentration; Perkin Elmer). Nonspecific binding was determined using 10 μM butaclamol (Sigma-Aldrich, St. Louis, MO) and total binding was determined with 30% DMSO vehicle. All compound dilutions were tested in triplicate and the reaction incubated for one hour at room temperature. The reaction was terminated by filtration through Whatman GF/B filters, presoaked for one hour in 0.5% polyethylenimine, using a Brandel R48 filtering manifold (Brandel Instruments, Gaithersburg, MD). The filters were washed 3 times with 3 mL of ice cold EBSS buffer and transferred to scintillation vials. 3 mL CytoScint liquid scintillation cocktail (MP Biomedicals, Solon, OH) was added and vials were counted using a Perkin Elmer Tri-Carb 2910 TR liquid scintillation counter (Waltham, MA). IC50 values for each compound were determined from dose-response curves and Ki values were calculated using the Cheng-Prusoff equation; these analyses were performed using GraphPad Prism version 5.00 for Windows (GraphPad Software, San Diego, CA). Reported Ki values were determined from least three independent experiments.

[2] = tested on: Long-Evans rats; assay: Responding during saline substitution (extinction) testing in rats; format: in vivo, rat; details: 5 or 15 mg/kg
From the text: Experiment 2. […] Following the completion of the self-administration testing, rats were allowed to self-administer oxycodone for another 4 daily sessions. […] Fifteen min after injection, they were placed in the chambers and allowed to lever-press for saline infusion for 3 hr.

[3] = Sucrose self-administration; format: in vivo; details: pretreatment (±)-29 15 and 25 mg/kg, (±)-19 1 and 5 mg/kg
[4] = tested on: squirrel monkeys; assay: THC priming-induced reinstatement of drug seeking in squirrel monkeys; format: in vivo, squirrel monkey (Saimiri sciureus); details: squirrel monkeys, 1, 3, and 10 mg/kg i.m., FIG. 9
From the text: Reinstatement studies: In order to separately determine the reinstatement effects of a priming injection and drug-associated cues, we use two different extinction protocols (described below) that allow us to isolate the effects of these independent variables.
Priming-induced reinstatement: Before priming-induced reinstatement testing began, monkeys were allowed to self-administer the training dose of THC until they reached a stable baseline (5-10 sessions). In subsequent extinction sessions, lever presses led to i.v. saline infusions plus the visual cues that had been associated previously with THC. After at least two sessions of extinction, when responding had reached a low, stable level, a priming injection of THC (0.04 mg/kg i.v.) was given immediately before the next session, during which responding (FR10) continued to produce only i.v. saline injections and the discrete visual cues. […] A non-contingent i.v. injection of vehicle was also given before each extinction session as a control for the drug priming treatment.
Δ^9-tetrahydrocannabinol (THC, NIDA Drug Supply Program, Bethesda, MD, USA) was dissolved in a vehicle containing 1% Tween 80, 1% ethanol, and saline to obtain stock solution (0.4 mg/ml) and further diluted with saline. In the reinstatement tests, THC was injected i.v. (1 ml/kg) immediately before the session.

[5] = target: cannabinoid CB1 receptor (Homo sapiens, UniProt P21554); assay: Binding to cannabinoid CB1 receptor
[6] = tested on: Long-Evans rats; assay: Oxycodone-induced conditioned place preference (CPP) in rats; format: in vivo, rat
Method: CPP was tested in the place-conditioning apparatus (Med Associates, St Albans, VT) consisting of two side compartments (21×28 cm^2) and a central gray connecting area (21×12.5 cm^2); a sliding door separated each compartment from the connecting area. The two side compartments differed in wall color (black vs white), floor type (net vs grid), and illumination. Each rat was first exposed in the CPP apparatus for 15 minutes (preconditioning) and then followed by oxycodone CPP conditioning. […] Oxycodone CPP procedures consisted of 2 days of oxycodone (3 mg/kg, ip) conditioning in one compartment and 2 days of saline conditioning in another compartment, alternatively (e.g., oxycodone-saline-oxycodone-saline). The compartments paired with oxycodone or saline were counterbalanced. […] After oxycodone injection, animals were immediately confined in the assigned compartments for 40 minutes. To potentiate oxycodone CPP formation, animals received 4 days of oxycodone (3 mg/kg, ip, twice daily at 8:00 and 18:00) treatment at home cages. […] In the (Vehicle+vehicle) group, saline was paired with each compartment. Then 24 hours after the last saline or oxycodone conditioning injection, animals were placed in the same three-chamber CPP apparatus for 15 minutes and the time spent in each compartment was recorded. The CPP score was calculated by the time difference (seconds) that animal spent in drug-paired compartment versus saline-paired compartment.

T1 sequence (P14416 whole entry): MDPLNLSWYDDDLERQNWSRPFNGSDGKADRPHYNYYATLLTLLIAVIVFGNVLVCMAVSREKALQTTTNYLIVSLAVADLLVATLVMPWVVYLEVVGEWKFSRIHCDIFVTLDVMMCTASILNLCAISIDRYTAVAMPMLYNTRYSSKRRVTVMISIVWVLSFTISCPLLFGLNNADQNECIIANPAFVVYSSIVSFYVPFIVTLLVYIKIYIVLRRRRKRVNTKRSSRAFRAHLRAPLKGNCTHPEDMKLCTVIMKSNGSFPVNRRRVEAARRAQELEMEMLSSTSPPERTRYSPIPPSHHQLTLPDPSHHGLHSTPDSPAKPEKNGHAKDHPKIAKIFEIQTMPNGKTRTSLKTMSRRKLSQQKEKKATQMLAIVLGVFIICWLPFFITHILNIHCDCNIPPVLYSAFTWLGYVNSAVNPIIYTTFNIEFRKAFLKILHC
Sequence of cannabinoid CB1 receptor (P21554 whole entry): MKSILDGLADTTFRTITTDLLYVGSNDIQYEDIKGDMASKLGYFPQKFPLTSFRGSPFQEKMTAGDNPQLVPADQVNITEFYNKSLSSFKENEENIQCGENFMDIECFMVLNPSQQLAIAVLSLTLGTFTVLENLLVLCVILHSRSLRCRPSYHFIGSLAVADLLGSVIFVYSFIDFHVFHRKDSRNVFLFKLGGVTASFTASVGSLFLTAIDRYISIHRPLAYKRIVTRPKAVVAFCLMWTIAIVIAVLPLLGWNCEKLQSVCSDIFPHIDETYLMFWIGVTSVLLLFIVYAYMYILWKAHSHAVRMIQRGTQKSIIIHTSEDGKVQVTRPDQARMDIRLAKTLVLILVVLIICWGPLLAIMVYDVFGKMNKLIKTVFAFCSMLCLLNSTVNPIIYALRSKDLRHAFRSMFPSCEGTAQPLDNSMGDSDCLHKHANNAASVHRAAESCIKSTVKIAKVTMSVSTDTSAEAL

In the case of `CCc1cc(Cl)c(OC)c(N2CCN(CC(O)CCNC(=O)c3cc4ccccc4[nH]3)CC2)c1` (racemic) [Compound 29, N-(4-(4-(3-chloro-5-ethyl-2-methoxyphenyl)piperazin-1-yl)-3-hydroxybutyl)-1H-indole-2-carboxamide], the Ki [1] is reported as 17.1 ± 5.09 µM, the “oxycodone seeking during extinction testing” value [2] is reported as “inhibited oxycodone seeking during extinction testing” and the sucrose self-administration [3] is reported as “no significant effects on sucrose self-administration”. The “THC-induced reinstatement to drug seeking” value [4] was “attenuates THC-induced reinstatement to drug seeking; also recorded: blocked THC-induced reinstatement of drug seeking”, the “THC-induced reinstatement to drug seeking” value ([4]; listed as (±)-29) was “attenuation of THC-induced reinstatement to drug seeking” and the “binding to cannabinoid CB1 receptor” value [5] was “does not bind”. The “CPP produced by compound alone” value ([6]; rats, 15 mg/kg alone) was “did not produce CPP”, the “oxycodone induced CPP, posthoc comparison to (Vehicle+oxycodone) group” value ([6]; rats, 15 mg/kg, p<0.05) was “significant reduction in oxycodone induced CPP” and the “oxycodone-induced CPP” value ([6]; rats, 5, 15 mg/kg ip, 15 min before each oxycodone injection (3 mg/kg ip), FIG. 10) was “dose-dependently attenuated oxycodone-induced CPP”.
